The source of these data is ChEMBL document CHEMBL1781912, “In search of patterns over physicochemical properties and pharmacological activities for a set of [MCl₂(thiosemicarbazone)] complexes (M=Pt/Pd): support for multiple mechanisms of antichagasic action excluding DNA-bonding in vivo?” (Eur J Med Chem, 2011).

In the assay the test system is Trypanosoma cruzi. As to the kind of experiment: Antichagasic activity against Trypanosoma cruzi Tulahuen 2. The format is functional, organism-based.
`NC(=S)N/N=C\C=C\c1ccc([N+](=O)[O-])o1` returned an IC50 of 3.5 µM.
Turning to `O=[N+]([O-])c1ccc(/C=C/C=N/NC(=S)Nc2ccccc2)o1`, half-maximal inhibition (IC50) was put at 3.6 µM. This IC50 and that of the compound before are within 1.5-fold of each other.
The value for `CCNC(=S)N/N=C/c1ccc([N+](=O)[O-])o1` was 4.9 µM; that for `CNC(=S)N/N=C/c1ccc([N+](=O)[O-])o1` was 5 µM.
The figure for `CC1CS(=O)(=O)CCN1/N=C/c1ccc([N+](=O)[O-])o1` (centres undefined) [NIFURTIMOX] is 6.1 µM; for `NC(=S)N/N=C/c1ccc([N+](=O)[O-])o1` it is 2.7 µM; for `O=[N+]([O-])c1ccc(/C=N/NC(=S)Nc2ccccc2)o1` it is over 25 µM.
The figure for `CNC(=S)N/N=C/C=C/c1ccc([N+](=O)[O-])o1` is 4.5 µM.
For `CCNC(=S)N/N=C/C=C/c1ccc([N+](=O)[O-])o1`, half-maximal inhibition (IC50) was put at 4.1 µM. This IC50 and that of the compound before are within 1.5-fold of each other.

What is called IC50 is the midpoint of a concentration-inhibition curve. Low readings indicate greater potency, high ones weaker potency.
